Data reported in ChEMBL document CHEMBL1201862, “PubChem BioAssay data set” (2004).
Values belong to the compound of their own block, whether it stands above or below them. The source made the active and inactive calls.

Experiments:
[1] = target: T1, Calpain-2 catalytic subunit (Sus scrofa, UniProt P43367); assay: pig calpain II inhibitor potency, dose response, biochemical, fluorogenic peptide substrate (AID 1420); assay type: functional
T1 sequence (P43367 whole entry): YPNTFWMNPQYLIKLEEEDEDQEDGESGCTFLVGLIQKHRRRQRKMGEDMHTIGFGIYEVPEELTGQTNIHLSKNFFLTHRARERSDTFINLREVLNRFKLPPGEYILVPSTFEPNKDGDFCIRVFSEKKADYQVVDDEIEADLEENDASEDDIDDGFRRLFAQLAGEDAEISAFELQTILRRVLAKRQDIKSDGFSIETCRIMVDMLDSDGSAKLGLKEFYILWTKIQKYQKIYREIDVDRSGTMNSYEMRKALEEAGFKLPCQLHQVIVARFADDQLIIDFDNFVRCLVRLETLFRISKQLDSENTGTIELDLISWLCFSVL

[2] = HEp-2 cell cytotoxicity, dose response, cytotoxicity control for RSV inhibitor project, HTS (AID 2410); assay type: functional; conditions: human respiratory syncytial virus
[3] = target: CAAX prenyl protease 1 (Saccharomyces cerevisiae S288c, UniProt P47154); assay: Ste24 protease inhibitors, dose response, biochemical, S. cerevisiae, plate reader, cherry-pick (AID 488815)
[4] = target: Large T antigen (Simian virus 40, UniProt P03070); assay type: functional, Betapolyomavirus macacae;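 note: Confirmatory-stage PubChem screen for compounds that inhibit SV40 T antigen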
[5] = target: Intestinal-type alkaline phosphatase (Homo sapiens, UniProt P09923); assay: inhibition of human intestinal alkaline phosphatase – biochemical, dose response (AID 488876); assay type: functional
[6] = target: T2, Alkaline phosphatase, tissue-nonspecific isozyme (Homo sapiens, UniProt P05186); assay: TNAP enzyme inhibition by screening hits, dose response, selectivity assay for mouse IAP inhibitor project, biochemical, human TNAP, uHTS hits (AID 488906); assay type: functional
T2 sequence (P05186 whole entry): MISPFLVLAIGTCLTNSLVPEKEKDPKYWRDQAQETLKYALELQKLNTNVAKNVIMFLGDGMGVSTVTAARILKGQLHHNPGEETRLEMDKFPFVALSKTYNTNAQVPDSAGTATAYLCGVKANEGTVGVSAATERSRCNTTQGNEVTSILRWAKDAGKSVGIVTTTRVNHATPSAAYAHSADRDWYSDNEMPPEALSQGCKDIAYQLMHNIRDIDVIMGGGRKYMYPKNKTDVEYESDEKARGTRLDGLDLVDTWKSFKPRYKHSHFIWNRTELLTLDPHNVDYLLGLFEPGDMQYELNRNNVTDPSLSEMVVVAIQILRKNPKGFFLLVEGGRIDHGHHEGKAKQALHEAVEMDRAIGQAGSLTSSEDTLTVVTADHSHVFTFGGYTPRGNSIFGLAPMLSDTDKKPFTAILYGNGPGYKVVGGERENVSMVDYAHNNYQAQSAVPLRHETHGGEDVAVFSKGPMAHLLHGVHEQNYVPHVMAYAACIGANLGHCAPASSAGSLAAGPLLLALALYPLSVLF

[7] = target: Intestinal-type alkaline phosphatase (Mus musculus, UniProt P24822); assay: PubChem AID 488785; assay type: functional
[8] = target: T3, Zinc finger protein mex-5 (Caenorhabditis elegans, UniProt Q9XUB2); assay: MEX-5/TCR-2 RNA interaction inhibitors, dose response, biochemical, C. elegans, fluorescence polarization (AID 1960)
T3 sequence (Q9XUB2 whole entry): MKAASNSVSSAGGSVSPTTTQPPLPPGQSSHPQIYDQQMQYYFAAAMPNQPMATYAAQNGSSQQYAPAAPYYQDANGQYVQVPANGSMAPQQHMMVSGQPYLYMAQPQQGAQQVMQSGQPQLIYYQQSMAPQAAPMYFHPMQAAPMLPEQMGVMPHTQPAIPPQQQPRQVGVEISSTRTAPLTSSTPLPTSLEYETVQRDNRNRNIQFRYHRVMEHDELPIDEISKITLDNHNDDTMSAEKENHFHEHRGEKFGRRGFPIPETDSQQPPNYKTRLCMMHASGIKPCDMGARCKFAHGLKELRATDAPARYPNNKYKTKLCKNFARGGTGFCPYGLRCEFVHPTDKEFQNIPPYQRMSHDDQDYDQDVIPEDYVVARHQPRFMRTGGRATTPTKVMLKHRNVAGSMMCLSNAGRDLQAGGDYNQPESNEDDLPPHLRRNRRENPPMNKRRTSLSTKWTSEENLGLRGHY

[9] = target: T4, RNA-binding protein pos-1 (Caenorhabditis elegans, UniProt G5EF15); assay: inhibitors of POS-1/mex-3 RNA binding, dose response, biochemical, fluorescence polarization (AID 1964);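 note: purified POS-1 fused to maltose binding protein made in E. coli; potency of compounds blocking POS-1 binding to fluorescent RNA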
T4 sequence (G5EF15 whole entry): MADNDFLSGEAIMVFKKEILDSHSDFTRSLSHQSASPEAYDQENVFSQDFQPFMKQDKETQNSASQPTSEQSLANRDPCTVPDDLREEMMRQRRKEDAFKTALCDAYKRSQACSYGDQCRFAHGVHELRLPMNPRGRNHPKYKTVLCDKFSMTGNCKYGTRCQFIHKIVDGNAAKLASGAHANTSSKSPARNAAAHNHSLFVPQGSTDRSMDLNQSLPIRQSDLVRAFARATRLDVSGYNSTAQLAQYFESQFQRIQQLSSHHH

[10] = target: T5, Nucleotide-binding oligomerization domain-containing protein 1 (Homo sapiens, UniProt Q9Y239); assay: SAR analysis of compounds that inhibit NOD1 - Set 3. [Related pubchem assays (depositor defined):AID1566, AID1575, AID1578, AID1849, AID1852, AID2333, AID2335, AID2466]; assay type: functional
T5 sequence (Q9Y239 whole entry): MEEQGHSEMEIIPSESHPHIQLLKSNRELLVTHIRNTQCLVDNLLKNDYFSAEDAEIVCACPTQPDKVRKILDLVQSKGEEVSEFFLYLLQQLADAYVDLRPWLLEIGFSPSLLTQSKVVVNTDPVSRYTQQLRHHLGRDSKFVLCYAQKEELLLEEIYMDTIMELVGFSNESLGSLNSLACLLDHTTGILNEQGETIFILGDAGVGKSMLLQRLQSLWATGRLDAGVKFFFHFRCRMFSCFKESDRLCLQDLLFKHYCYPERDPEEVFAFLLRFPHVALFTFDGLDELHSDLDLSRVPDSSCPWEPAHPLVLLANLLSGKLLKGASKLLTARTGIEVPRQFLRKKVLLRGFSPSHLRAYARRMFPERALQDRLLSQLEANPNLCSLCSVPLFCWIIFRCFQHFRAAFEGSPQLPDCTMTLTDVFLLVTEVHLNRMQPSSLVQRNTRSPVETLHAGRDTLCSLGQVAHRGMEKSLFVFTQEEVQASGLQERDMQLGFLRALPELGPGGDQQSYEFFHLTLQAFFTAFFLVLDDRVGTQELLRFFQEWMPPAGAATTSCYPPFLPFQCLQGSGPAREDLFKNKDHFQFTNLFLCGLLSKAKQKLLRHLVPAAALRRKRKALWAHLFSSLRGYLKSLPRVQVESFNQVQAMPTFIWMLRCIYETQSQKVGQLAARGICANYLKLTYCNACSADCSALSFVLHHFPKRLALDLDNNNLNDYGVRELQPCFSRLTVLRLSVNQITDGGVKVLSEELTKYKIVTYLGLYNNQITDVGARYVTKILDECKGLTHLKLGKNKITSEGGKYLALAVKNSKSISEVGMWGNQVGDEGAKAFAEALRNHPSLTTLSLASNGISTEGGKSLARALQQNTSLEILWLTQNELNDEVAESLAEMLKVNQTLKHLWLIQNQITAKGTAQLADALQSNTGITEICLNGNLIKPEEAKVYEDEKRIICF

[11] = target: T6, Interleukin-8 (Homo sapiens, UniProt P10145); assay: SAR analysis of Tumor necrosis factor alpha (TNF-alpha) induced IL-8 secretion in MCF-7/NOD1 cells - Set 2. [Related pubchem assays (depositor defined):AID1575, AID2250, AID2260]; assay type: functional, cell-based
T6 sequence (P10145 whole entry): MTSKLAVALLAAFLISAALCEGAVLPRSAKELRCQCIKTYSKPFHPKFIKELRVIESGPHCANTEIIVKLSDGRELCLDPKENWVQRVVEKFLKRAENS

[12] = tested on: HEK293; assay: SAR analysis of compounds that are cytotoxic to HEK293 - Set 2. [Related pubchem assays (depositor defined):AID1575, AID1578, AID1849, AID2001, AID2333, AID2334, AID2335, AID2337, AID2800]; assay type: functional, cell-based; conditions: Homo sapiens
[13] = target: T5, Nucleotide-binding oligomerization domain-containing protein 1; assay: SAR analysis of compounds that inhibit NOD1 - Set 2. [Related pubchem assays (depositor defined):AID1566, AID1575, AID1578, AID1849, AID1852, AID2333, AID2335, AID2798]; assay type: functional
[14] = target: T7, Nucleotide-binding oligomerization domain-containing protein 2 (Homo sapiens, UniProt Q9HC29); assay: NOD2 inhibitors, SAR follow-up, set 2 (AID 2475); assay type: functional
[15] = target: T6, Interleukin-8; assay: SAR analysis of GM-Tri-DAP induced IL-8 secretion in MCF-7/NOD1 cells - Set 2. [Related pubchem assays (depositor defined):AID1575, AID1578, AID2333]; assay type: functional, cell-based
[16] = tested on: HEK293; assay: SAR analysis of compounds that are cytotoxic to HEK293 - Set 3. [Related pubchem assays (depositor defined):AID1575, AID1578, AID1848, AID1849, AID2001, AID2333, AID2334, AID2335, AID2337, AID2469]; assay type: functional, cell-based; conditions: Homo sapiens
[17] = target: T5, Nucleotide-binding oligomerization domain-containing protein 1; assay: SAR analysis of NF-kappaB dependent luciferase using DAP as an inducer - Set 2. [Related pubchem assays (depositor defined):AID1566, AID1575, AID1578, AID1579, AID1849, AID1852, AID2264]; assay type: functional
[18] = target: T7, Nucleotide-binding oligomerization domain-containing protein 2; assay: NOD2 signaling inhibitors, analog potency, SAR follow-up, cell-based, set 3 (AID 2799); assay type: functional
[19] = target: Tumor necrosis factor (Homo sapiens, UniProt P01375); assay: TNFa-triggered NF-kB activation inhibitors, SAR follow-up, cell-based, set 3 (AID 2801); assay type: functional
[20] = target: T8, Kappa-type opioid receptor (Homo sapiens, UniProt P41145); assay: KOR agonist analogs, imaging readout, SAR follow-up, image-based (AID 2359); assay type: functional
[21] = target: T9, Mu-type opioid receptor (Homo sapiens, UniProt P35372); assay: MOR agonists by imaging, SAR follow-up, image-based (AID 2352); assay type: functional
[22] = target: T10, Delta-type opioid receptor (Homo sapiens, UniProt P41143); assay: DOR antagonists, SAR follow-up, image-based (AID 2357); assay type: functional
[23] = target: T9, Mu-type opioid receptor; assay: MOR antagonists, SAR follow-up, image-based (AID 2420); assay type: functional;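 note: compounds added before stimulation of receptor with agonist DAMGO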
[24] = target: T8, Kappa-type opioid receptor; assay: KOR antagonists by imaging, SAR follow-up, image-based (AID 2348); assay type: functional
[25] = target: T10, Delta-type opioid receptor; assay: DOR agonists, SAR follow-up, image-based (AID 2370); assay type: functional
[26] = target: T8, Kappa-type opioid receptor; assay: SAR analysis of small molecule agonists of the kappa opioid receptor via a luminescent beta-arrestin assay. [Related pubchem assays (depositor defined):AID1777, AID1786, AID1966, AID2133, AID2136, AID2348, AID2352, AID2357, AID2359, AID2370, AID2420, AID2478, AID2491, AID2492, AID2493, AID2497, AID2498, AID2500, AID449737, AID488822, AID488842]; assay type: functional
[27] = target: Phosphomannomutase 2 (Homo sapiens, UniProt O15305); assay: Counter screen SAR assay for PMM2 inhibitors via a fluorescence intensity assay. [Related pubchem assays (depositor defined):AID1545, AID1574]
[28] = target: T11, Mannose-6-phosphate isomerase (Homo sapiens, UniProt P34949); assay: PMI enzyme inhibitors, confirmation, biochemical, fluorescence intensity (AID 1535)
T11 sequence (P34949 whole entry): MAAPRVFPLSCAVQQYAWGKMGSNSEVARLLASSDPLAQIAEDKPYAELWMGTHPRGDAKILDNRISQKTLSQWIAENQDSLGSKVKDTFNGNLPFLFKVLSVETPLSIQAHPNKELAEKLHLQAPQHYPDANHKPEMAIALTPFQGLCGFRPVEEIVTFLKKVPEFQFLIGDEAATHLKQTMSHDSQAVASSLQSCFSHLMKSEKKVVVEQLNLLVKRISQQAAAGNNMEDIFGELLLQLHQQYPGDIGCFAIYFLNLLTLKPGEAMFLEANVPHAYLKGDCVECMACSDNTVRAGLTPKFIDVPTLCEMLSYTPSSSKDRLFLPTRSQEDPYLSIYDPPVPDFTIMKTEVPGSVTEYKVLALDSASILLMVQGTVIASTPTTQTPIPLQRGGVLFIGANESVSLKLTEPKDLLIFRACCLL

T8 sequence (P41145 whole entry): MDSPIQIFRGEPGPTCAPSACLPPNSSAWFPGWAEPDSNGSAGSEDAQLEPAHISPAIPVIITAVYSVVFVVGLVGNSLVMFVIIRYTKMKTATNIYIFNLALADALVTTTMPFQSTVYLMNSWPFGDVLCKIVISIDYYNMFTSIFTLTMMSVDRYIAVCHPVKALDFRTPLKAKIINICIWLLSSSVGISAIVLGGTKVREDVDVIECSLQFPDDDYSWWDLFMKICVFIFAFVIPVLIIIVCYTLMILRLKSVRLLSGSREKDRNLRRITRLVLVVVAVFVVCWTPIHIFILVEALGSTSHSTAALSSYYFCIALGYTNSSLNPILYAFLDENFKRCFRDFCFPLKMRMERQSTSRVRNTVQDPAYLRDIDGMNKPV
T9 sequence (P35372 whole entry): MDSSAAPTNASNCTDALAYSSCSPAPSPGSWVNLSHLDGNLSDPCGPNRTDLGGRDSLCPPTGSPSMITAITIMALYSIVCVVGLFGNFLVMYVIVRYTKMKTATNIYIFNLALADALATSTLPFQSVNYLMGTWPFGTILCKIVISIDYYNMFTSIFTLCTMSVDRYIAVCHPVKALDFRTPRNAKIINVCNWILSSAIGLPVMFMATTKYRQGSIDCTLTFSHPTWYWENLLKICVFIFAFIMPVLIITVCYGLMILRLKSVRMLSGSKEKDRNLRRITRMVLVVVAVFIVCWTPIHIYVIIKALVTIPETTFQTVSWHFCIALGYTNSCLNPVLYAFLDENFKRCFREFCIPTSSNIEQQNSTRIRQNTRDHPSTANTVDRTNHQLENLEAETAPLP
T7 sequence (Q9HC29 whole entry, the tested form may be a part): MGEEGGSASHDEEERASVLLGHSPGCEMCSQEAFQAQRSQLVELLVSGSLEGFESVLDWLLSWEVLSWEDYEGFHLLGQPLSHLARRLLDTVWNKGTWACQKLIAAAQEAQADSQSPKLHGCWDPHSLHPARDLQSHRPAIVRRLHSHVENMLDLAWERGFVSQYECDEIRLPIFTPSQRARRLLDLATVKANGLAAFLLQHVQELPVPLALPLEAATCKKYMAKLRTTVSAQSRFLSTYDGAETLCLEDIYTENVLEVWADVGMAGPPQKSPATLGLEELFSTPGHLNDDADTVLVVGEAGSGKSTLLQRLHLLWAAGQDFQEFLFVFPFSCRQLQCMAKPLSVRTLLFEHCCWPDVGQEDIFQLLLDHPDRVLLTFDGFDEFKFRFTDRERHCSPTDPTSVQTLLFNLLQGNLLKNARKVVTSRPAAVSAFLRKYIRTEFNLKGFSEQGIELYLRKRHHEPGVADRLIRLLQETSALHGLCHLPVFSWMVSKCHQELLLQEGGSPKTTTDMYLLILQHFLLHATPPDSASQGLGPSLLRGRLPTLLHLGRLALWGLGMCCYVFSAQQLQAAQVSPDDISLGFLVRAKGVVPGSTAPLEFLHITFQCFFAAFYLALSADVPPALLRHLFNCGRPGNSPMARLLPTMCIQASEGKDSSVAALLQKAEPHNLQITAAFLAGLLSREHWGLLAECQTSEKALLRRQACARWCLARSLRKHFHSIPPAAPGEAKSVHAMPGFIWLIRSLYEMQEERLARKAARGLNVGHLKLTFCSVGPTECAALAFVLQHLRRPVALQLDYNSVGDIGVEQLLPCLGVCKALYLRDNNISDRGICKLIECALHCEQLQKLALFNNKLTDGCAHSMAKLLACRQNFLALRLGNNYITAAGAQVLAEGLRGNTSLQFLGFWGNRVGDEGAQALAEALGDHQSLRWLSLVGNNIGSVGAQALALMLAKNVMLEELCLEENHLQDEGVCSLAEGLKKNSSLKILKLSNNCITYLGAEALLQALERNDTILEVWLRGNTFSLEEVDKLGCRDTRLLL
T10 sequence (P41143 whole entry): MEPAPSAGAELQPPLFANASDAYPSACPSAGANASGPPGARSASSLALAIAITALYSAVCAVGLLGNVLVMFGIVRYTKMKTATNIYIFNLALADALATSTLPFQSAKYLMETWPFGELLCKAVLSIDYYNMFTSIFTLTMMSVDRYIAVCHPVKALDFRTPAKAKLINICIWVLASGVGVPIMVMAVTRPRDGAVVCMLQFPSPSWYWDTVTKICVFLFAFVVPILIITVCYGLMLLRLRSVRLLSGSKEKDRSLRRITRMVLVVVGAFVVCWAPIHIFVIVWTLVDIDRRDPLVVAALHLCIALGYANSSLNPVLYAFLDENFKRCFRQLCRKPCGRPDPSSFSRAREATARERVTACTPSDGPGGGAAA
Intestinal-type alkaline phosphatase (Mus musculus, UniProt P24822), sequence (P24822 whole entry): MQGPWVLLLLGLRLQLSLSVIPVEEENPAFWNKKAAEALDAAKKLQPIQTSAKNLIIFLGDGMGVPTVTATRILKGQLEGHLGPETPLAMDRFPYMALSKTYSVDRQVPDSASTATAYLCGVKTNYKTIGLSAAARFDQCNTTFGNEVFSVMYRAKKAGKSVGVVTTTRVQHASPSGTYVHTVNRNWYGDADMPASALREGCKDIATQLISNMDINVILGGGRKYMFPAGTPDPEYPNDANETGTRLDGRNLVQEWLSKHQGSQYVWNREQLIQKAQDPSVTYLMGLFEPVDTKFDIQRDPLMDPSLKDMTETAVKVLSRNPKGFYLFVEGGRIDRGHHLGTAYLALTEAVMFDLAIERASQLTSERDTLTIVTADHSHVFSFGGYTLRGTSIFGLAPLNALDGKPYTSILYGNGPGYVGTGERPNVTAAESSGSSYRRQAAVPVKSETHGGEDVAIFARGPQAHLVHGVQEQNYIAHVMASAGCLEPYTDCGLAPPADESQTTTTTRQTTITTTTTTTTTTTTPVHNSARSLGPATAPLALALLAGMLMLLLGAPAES
Tumor necrosis factor, sequence (P01375 whole entry): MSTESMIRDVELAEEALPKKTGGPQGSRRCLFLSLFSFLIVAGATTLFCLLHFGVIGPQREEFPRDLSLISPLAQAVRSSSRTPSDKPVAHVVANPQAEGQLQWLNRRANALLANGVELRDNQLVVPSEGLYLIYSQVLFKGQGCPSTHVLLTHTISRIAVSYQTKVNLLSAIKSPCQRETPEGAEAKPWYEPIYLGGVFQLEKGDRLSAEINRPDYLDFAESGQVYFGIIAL
Intestinal-type alkaline phosphatase (Homo sapiens, UniProt P09923), sequence (P09923 whole entry): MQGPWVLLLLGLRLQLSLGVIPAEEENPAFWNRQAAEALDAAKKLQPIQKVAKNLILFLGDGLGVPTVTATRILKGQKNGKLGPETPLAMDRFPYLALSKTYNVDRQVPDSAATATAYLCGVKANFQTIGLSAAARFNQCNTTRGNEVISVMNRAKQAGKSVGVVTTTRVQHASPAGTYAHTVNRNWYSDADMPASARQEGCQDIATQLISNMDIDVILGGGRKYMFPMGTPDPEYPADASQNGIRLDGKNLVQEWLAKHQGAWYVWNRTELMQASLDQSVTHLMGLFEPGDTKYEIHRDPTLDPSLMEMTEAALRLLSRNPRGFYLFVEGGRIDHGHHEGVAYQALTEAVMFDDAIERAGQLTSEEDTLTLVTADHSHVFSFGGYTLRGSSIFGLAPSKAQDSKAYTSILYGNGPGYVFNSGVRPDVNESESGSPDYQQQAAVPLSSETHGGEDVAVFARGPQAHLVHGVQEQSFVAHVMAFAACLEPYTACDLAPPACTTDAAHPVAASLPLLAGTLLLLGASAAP
Phosphomannomutase 2, sequence (O15305 whole entry): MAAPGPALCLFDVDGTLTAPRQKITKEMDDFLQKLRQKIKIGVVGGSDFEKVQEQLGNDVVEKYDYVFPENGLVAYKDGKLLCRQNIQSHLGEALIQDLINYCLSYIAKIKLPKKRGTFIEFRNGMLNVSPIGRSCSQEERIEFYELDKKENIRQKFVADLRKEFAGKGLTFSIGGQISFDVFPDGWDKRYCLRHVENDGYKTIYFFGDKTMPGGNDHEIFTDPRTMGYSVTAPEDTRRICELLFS
Large T antigen, sequence (P03070 whole entry): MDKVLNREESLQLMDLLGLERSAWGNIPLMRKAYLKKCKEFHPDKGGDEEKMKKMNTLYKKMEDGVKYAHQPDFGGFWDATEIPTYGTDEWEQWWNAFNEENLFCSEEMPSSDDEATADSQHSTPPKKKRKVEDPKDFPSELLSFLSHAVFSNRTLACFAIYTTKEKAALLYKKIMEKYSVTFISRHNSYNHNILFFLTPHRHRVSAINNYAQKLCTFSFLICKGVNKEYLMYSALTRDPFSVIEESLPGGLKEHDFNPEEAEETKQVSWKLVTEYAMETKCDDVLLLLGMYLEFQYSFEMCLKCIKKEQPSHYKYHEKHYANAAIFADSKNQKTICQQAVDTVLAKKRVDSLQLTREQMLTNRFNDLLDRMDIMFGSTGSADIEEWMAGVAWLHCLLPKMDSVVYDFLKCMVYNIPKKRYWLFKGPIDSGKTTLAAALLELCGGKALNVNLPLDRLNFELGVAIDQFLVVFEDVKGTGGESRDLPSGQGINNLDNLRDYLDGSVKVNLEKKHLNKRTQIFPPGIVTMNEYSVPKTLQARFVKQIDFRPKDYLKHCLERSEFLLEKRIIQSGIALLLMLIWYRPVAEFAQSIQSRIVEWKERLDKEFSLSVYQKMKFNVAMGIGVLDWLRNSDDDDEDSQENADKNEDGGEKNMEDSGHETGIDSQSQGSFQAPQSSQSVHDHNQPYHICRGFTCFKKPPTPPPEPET
CAAX prenyl protease 1, sequence (P47154 whole entry): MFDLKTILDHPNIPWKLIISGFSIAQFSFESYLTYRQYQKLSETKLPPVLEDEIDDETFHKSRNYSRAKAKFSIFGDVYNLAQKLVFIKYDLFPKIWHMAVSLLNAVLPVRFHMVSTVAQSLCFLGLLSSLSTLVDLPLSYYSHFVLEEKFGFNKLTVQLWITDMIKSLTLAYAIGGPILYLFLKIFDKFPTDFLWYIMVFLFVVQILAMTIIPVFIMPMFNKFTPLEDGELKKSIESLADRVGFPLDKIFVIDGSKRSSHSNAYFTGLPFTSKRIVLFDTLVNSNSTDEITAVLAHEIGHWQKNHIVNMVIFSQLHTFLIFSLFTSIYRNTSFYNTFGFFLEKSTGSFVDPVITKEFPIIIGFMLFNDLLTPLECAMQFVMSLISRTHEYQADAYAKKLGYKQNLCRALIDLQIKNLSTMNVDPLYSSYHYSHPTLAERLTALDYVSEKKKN

- IC50 [1]: 9.54 µM (active)
- AC50 [3]: > 100 µM (inactive)
Compound: Cc1ccc(Nc2nc(-c3ccc(S(=O)(=O)N4CCOCC4)cc3)cs2)cc1Cl
- CC50 [2]: 4.91 µM (active)

- IC50 [4]: 39.6 µM (active)
- IC50 [5]: > 100 µM (inactive)
- IC50 [6]: > 100 µM (inactive)
- IC50 [7]: 6 µM (active)
- EC50 [8]: 26.8 µM (active)
- EC50 [9]: > 300 µM (not active)
Compound: O=C1CNC(=S)N1CCc1ccc(O)c(O)c1

Compound: CCCn1c(SCCc2ccccc2)nc2c1c(=O)[nH]c(=O)n2C
- IC50 [10]: > 20 µM (inactive)
- IC50 [11]: > 25 µM (inactive)
- IC50 [12]: > 20 µM (inactive)
- IC50 [13]: > 20 µM (inactive)
- IC50 [14]: > 20 µM (inactive)
- IC50 [15]: > 25 µM (inactive)
- IC50 [16]: > 20 µM (inactive)
- IC50 [17]: > 25 µM (inactive)
- IC50 [18]: > 20 µM (inactive)
- IC50 [19]: > 20 µM (inactive)

- EC50 [20]: 18.1 µM (inactive)
- EC50 [21]: > 32 µM (inactive)
- IC50 [22]: > 32 µM (inactive)
- IC50 [23]: > 32 µM (inactive)
- IC50 [24]: > 32 µM (inactive)
- EC50 [25]: > 32 µM (inactive)
- EC50 [26]: > 10 µM (inactive)
Compound: O=C(c1ccccn1)N(Cc1cc2ccccc2[nH]c1=O)C1CCCCC1

- IC50 [27]: > 100 µM (inactive)
- IC50 [28]: 49.9 µM (active)
Compound: COc1ccc(C)c(/N=c2\ssnc2Cl)c1
